Assay [1] is described as follows: Inhibition of 2-oxoglutarate-dependent human JMJD2E in presence of excess 2-oxoglutarate and 10 uM Fe2 by FDH coupled assay.
The nature of assay [2]: Inhibition of 2-oxoglutarate-dependent human JMJD2E in presence of excess H3K9me3 peptide and 10 uM Fe2 by FDH coupled assay.
A short description of assay [3]: Inhibition of 2-oxoglutarate-dependent human JMJD2E preincubated for 30 mins by FDH coupled assay.
Assay [4] in a line: Inhibition of 2-oxoglutarate-dependent human JMJD2E in presence of 50 uM Fe by FDH coupled assay.
Assay [5] in a line: Inhibition of human collagene prolyl-4-hydroxylase.
Assay [6] in a line: Inhibition of human collagene prolyl-3-hydroxylase.
The next assay concerns the target Prolyl hydroxylase EGLN2 (Homo sapiens, UniProt Q96KS0). The experiment in a line: Inhibition of human recombinant HIF PHD1.
The target in the next assay is Prolyl hydroxylase EGLN3 (Homo sapiens, UniProt Q9H6Z9). The experiment in a line: Inhibition of human recombinant HIF PHD3.
Assay [7] deals with T1, Egl nine homolog 1 (Homo sapiens, UniProt Q9GZT9). The experiment in a line: Inhibition of 2-oxoglutarate-dependent human recombinant HIF PHD2 preincubated for 1 hr.
In assay [8] the target is Hypoxia-inducible factor 1-alpha inhibitor (Homo sapiens, UniProt Q9NWT6). Description: Inhibition of human FIH.
The target in assay [9] is T1, Egl nine homolog 1. The experiment in a line: Inhibition of human recombinant PHD2.

The structures appear in SMILES notation. Where only a bound is given, the exact number is not on record here.

Sequence of Prolyl hydroxylase EGLN2 (Q96KS0 whole entry): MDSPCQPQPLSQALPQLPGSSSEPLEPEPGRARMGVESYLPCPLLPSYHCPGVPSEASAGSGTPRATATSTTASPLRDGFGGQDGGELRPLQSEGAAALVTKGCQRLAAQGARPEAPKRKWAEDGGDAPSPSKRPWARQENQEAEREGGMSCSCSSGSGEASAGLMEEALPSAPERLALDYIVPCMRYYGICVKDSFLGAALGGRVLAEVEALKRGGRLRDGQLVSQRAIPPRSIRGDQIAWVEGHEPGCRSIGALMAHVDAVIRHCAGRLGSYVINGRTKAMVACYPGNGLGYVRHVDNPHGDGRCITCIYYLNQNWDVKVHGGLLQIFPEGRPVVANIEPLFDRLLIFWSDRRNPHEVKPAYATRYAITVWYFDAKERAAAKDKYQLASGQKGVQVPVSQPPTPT
T1 sequence (Q9GZT9 whole entry): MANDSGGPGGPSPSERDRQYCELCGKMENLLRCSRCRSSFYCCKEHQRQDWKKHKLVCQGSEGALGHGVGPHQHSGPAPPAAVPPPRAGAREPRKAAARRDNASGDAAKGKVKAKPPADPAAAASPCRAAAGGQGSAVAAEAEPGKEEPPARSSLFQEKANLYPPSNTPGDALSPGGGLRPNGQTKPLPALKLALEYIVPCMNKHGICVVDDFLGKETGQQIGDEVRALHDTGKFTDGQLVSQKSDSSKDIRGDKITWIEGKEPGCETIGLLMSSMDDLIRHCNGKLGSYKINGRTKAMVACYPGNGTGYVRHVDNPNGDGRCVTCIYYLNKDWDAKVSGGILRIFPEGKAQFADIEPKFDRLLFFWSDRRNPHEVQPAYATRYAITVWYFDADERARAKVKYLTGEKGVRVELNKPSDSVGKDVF
Sequence of Prolyl hydroxylase EGLN3 (Q9H6Z9 whole entry): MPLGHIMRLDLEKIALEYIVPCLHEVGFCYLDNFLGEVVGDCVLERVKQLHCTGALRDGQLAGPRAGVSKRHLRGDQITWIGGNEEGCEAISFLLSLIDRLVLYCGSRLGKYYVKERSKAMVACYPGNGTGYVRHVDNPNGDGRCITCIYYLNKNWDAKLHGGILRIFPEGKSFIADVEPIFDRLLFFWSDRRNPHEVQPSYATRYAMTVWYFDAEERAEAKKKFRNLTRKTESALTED
Sequence of Hypoxia-inducible factor 1-alpha inhibitor (Q9NWT6 whole entry): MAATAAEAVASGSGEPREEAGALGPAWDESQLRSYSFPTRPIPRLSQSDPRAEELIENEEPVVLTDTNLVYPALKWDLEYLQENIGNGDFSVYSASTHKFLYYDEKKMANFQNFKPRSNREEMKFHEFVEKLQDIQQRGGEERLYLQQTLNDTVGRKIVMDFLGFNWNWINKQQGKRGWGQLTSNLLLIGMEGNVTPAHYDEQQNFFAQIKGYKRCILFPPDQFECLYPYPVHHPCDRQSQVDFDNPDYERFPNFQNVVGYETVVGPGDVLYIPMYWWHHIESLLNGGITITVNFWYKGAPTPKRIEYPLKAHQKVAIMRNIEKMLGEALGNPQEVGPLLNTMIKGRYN

The IC50 is the concentration needed to halve the response being measured. For `O=C(NO)c1cccc(O)c1`, the IC50 in assay [1] turned out to be 300 µM; in assay [2], 28 µM; in [3], 4.8 µM; in assay [4], 19 µM.

With `O=C(O)c1ccncc1C(=O)O`, the IC50 in assay [1] and in assay [2] was greater than 10000 µM throughout.

As a reminder, the Ki is the equilibrium dissociation constant of an inhibitor or competing ligand from its target. `O=C(O)c1ccnc(C(=O)O)c1`: the IC50 in [1] worked out at 4.7 µM; in assay [4] it was 1.8 µM. The Ki amounted to 2000 nM in [5], 9 µM in assay [6], 7 µM on Prolyl hydroxylase EGLN2 and 7 µM on Prolyl hydroxylase EGLN3.

Take `O=C(O)c1cncc(C(=O)O)c1`: the IC50 in [1] and in assay [2] was greater than 10000 µM each time.

Regarding `O=C(O)C(=O)N[C@H](CCc1ccccc1)C(=O)O`, the IC50 in assay [1] worked out at 270 µM; in assay [2], 100 µM; in [3], 39 µM.

In the case of `O=C(O)C(=O)N[C@H](Cc1ccccc1)C(=O)O`, the IC50 in assay [1] turned out to be 590 µM.

In the case of `O=C(O)c1cc(C(=O)O)ncn1`, the IC50 in assay [1] was 73 µM; in assay [2], 27 µM.

As for `O=C(NO)c1cc(O)ccc1Oc1ccccc1`, the IC50 was 340 µM in assay [1] and 360 µM in [2].

In the case of `COc1ccc(O)cc1C(=O)NO`, the results for the IC50 in assay [1], in assay [2] and in assay [4] were 300 µM, 230 µM and 160 µM, respectively.

As for `CCCC(=O)O` [BUTYRIC ACID], the IC50 in assay [1] and in assay [2] was greater than 10000 µM throughout.

With `O=C(O)c1cccc(C(=O)O)n1` [DIPICOLINIC ACID], the IC50 is 250 µM in assay [1], 120 µM in [2] and 120 µM in assay [4].

For the compound `O=C(O)/C=C/C(=O)O` [FUMARIC ACID], the IC50 in assay [1] is greater than 10000 µM; in assay [2], 1600 µM; in [3] it was 2300 µM; on Egl nine homolog 1 [7], 3000 nM.

In [8], `O=C(O)CNC(=O)C(=O)O` [N-OXALYLGLYCINE] yielded a Ki of 1.2 mM.

For `O=C(O)c1ccc(C(=O)O)nc1` [PYRIDINE-2,5-DICARBOXYLIC ACID], the Ki at Egl nine homolog 1 [9] is greater than 300 µM; in [5] it was 800 nM; in assay [6] it was greater than 1000 µM; at Prolyl hydroxylase EGLN2, greater than 300 µM; at Prolyl hydroxylase EGLN3, greater than 300 µM. Also, the values for the IC50 in assay [1] and in assay [2] were 1900 µM and 180 µM, respectively.

On to `O=C(O)c1cccnc1C(=O)O` [QUINOLINIC ACID], for which the values for the IC50 in [1] and in assay [2] were greater than 10000 µM and greater than 5000 µM, respectively.

Regarding `O=C(O)CCC(=O)O` [SUCCINIC ACID], the IC50 in assay [1] was greater than 10000 µM; in assay [2] it was 710 µM; in assay [3], 320 µM.

In assay [3], `CC(/C=C/C(=O)NO)=C\[C@@H](C)C(=O)c1ccc(N(C)C)cc1` [TRICHOSTATIN] registered an IC50 of 28 µM.

These data come from ChEMBL document CHEMBL1152272, “Inhibitor scaffolds for 2-oxoglutarate-dependent histone lysine demethylases” (J Med Chem, 2008).
